Data taken from patent US9927437B2, “Treating neurodegenerative disease” (THE BRIGHAM AND WOMEN'S HOSPITAL, INC., priority 2013, dated 2018).

Legend:
Ly6C^high monocytes = experiment: Viability assay, monocytes; assay type: cell-based, mouse; conditions: 1 h pre-treatment, 3 h
primary mouse microglia = experiment: Response of primary microglia to LPS/IFNγ (nCounter); assay type: cell-based; conditions: absence of astrocytes, LPS/IFNγ 6 h
Source text: FIGS. 5a-m. B4GALT6 in astrocytes regulates the activation of microglia and CNS-infiltrating monocytes. (a) Heatmap depicting mRNA expression, as determined by nCounter Nanostring analysis, in microglia from naïve or EAE NOD mice treated with PDMP or vehicle. Representative data of three independent experiments. Statistical analysis by Student's t-test. (b) qPCR analysis of ccl5, il1b, opn, nos2, cd40, and H2-Aa gene expression relative to Gapdh. (c, d) Mean normalized expression of genes associated with M1- or M2-phenotype in microglia (Table 3) (c) and Ly6C^high monocytes (d). Statistical analysis by Student's t-test. (e-h) primary microglia were pre-treated with PDMP, LacCer, or vehicle, followed by activation with LPS/IFNγ for 6 h or left un-treated (control) as in (FIG. 3a). mRNA expression was determined by nCounter Nanostring analysis (e, g), and microglial viability was determined (f, h). Representative data of five independent experiments. […] RNA was harvested from microglia treated in the absence [MG (pure)] or presence [MG (mixed)] of astrocytes and gene expression was analyzed by qPCR for the expression ccl2, ccl5 and nos2 relative to gapdh. […] Microglia were isolated as in (i), and microglial-nos2 expression was determined by qRT relative to gapdh and presented as in (i). […]

Compound | viability of purified Ly6C^high monocytes (Ly6C^high monocytes) | response of cultured primary mouse microglia to LPS/IFNγ (primary mouse microglia)
CCCCCCCCCC(=O)N[C@H](CN1CCOCC1)[C@H](O)c1ccccc1 [PDMP, D-threo-1-phenyl-2-decanoylamino-3-morpholino-1-propanol] | did not affect | neither the viability nor the response of cultured primary mouse microglia to LPS/IFNγ was affected
lactosylceramide [LacCer] | did not affect | neither the viability nor the response of cultured primary mouse microglia to LPS/IFNγ was affected
